ChEMBL document CHEMBL1156380, “Inhibition of Mycobacterium tuberculosis growth by saringosterol from Lessonia nigrescens” (J Nat Prod, 2001)
In brackets after ≈: the same amount, converted by molar mass. Activity calls are given as the source filed them. No cut-off for these calls is given here.

Columns and labels:
[1] = tested on: Mycobacterium tuberculosis; test: Antitubercular activity against Mycobacterium tuberculosis H37Rv ATCC 27294 by BACTEC 460 radiometric assay; assay type: functional
Vero = test: Cytotoxicity against african green monkey Vero cells by celltiter 96 aqueous nonradioactive assay; assay type: cell-based; conditions: Chlorocebus sabaeus

Structure (SMILES)	MIC [1]	IC50 (Vero) [µg/mL]
C=C[C@](O)(CC[C@@H](C)[C@H]1CC[C@H]2[C@@H]3CC=C4C[C@@H](O)CC[C@]4(C)[C@H]3CC[C@]12C)C(C)C	1 µg/mL (≈ 2.33 µM)	–
C=C[C@@](O)(CC[C@@H](C)[C@H]1CC[C@H]2[C@@H]3CC=C4C[C@@H](O)CC[C@]4(C)[C@H]3CC[C@]12C)C(C)C	0.125 µg/mL (≈ 0.292 µM)	–
C/C=C(\CC[C@@H](C)[C@H]1CC[C@H]2[C@@H]3CC=C4C[C@@H](O)CC[C@]4(C)[C@H]3CC[C@]12C)C(C)C	inactive	–
CO[C@H]1/C=C/O[C@@]2(C)Oc3c(C)c(O)c4c(O)c(c(/C=N/N5CCN(C)CC5)c(O)c4c3C2=O)NC(=O)/C(C)=C\C=C\[C@H](C)[C@H](O)[C@@H](C)[C@@H](O)[C@@H](C)[C@H](OC(C)=O)[C@@H]1C [RIFAMPIN]	0.25 µg/mL (≈ 0.304 µM)	–
C=CC(O)(CC[C@@H](C)[C@H]1CC[C@H]2[C@@H]3CC=C4C[C@@H](O)CC[C@]4(C)[C@H]3CC[C@]12C)C(C)C (stereo partly specified) [SARINGOSTEROL]	0.25 µg/mL (≈ 0.583 µM)	> 128
